# Results as given in patent US6867027B1, “RNA polymerase” (The Institute of Physical and Chemical Research, priority 1997, dated 2005).
# What was measured:
# Assay type in all cases: biochemical
# [1] = Inhibition of [α-32P]UTP incorporation by 3′-dATP in the transcription reaction (3′-dNTP incorporation rate); conditions: compared with wild type T7 RNA polymerase
# Protocol: Ribonucleotide (NTP) and 3′-deoxynucleotide (3′-dNTP) incorporation rates of the mutant T7 RNA polymerase purified in Example 7 were measured as follows.
# pBluescript(KS+) plasmid (Stratagene) linearized by reaction with a restriction endonuclease, PvuII, was used as a template for the transcription reaction, and 250 μM each of ATP, CTP, GTP, and UTP, 2 mM of spermidine-(HCl)3, 5 mM of DTT, 40 mM Tris/HCl pH 8.0, 0.1 μl of [α-^32P] UTP (3000 Ci/mmole), and 25 units of the mutant T7 RNA polymerase F644Y/L665P/F667Y were also used for the reaction. For two kinds of reaction mixture (with or without 3′-dATP, final concentration was 100 μM), the reaction was performed at 37° C. for 60 minutes. The whole reaction mixture was spotted on DE81 paper (Whatman), washed three times with phosphate buffer, and dried. The DE81 paper was placed into a scintillation vial, and radioactivity was measured using a scintillation counter (Beckman) for each reaction. Degree of inhibition of the [α-^32P] UTP incorporation was calculated by comparing the values obtained with and without 3′-dATP based on the measured radioactivity. The relative activity obtained from calculated inhibition degree and defined as a relative value to the inhibition degree of the wild type T7 RNA polymerase normalized to 1.000 was shown in Table 1.
# The inhibition degree was calculated by using the wild type T7 RNA polymerase, T7 RNA polymerase F644Y, L665P/F667Y obtained in Example 3, mutant T7 RNA polymerase F644Y/L665P, F782Y, F733Y, F646Y or Y639F constructed and purified in the same manner as in Examples 2 and 3 for the reaction instead of the above F644Y/L665P/F667Y mutant, and relative activities are shown in Table 1.
# For example, it is meant that the mutant T7 RNA polymerase F644Y/L665P/F667Y is 5.58 times more likely to incorporate 31-dATP in comparison with the wild type enzyme.
# [2] = In vitro transcription with a single dye terminator, sequence ladder analysed on ABI 377 (Example 4); conditions: for incorporation efficiency for 3′-dCTP derivatives / peak intensities of the sequence ladders: compared with wild type; for peak intensities of the sequence ladders: FIG. 14 and FIG. 15
# Protocol: 3′ -DNTP incorporation efficiency of the purified mutant T7 RNA polymerases F644Y and L665P/F667Y was compared with that of wild type T7 RNA polymerase as follows. In vitro transcription reaction was performed by, for example, a partially modified version of the method of Melton, D. A, [Nucleic Acids Res., 12:7035-7056 (1984)]. More specifically, the reaction was performed in a total volume of 10 μl containing a plasmid vector pBluescriptKS(+) having T7 promoter (Stratagene) linearized by the reaction with a restriction endonuclease PvuII or ScaI as a template, 150 μM of 5-carboxy-X-rhodamine-labeled 3′-deoxycytidine-5′-triphosphate which was a dye terminator prepared according to the method described in WO96/14434 as a derivative of 3′-dNTP, 500 μM of GTP and UTP, 250 μM of ATP and CTP, 8 mM Of MgCl2, 2 mM of spermidine-(HCl)3, 5 mM of DTT, 40 mM of Tris/HCl pH 8.0 (BRL, Gibco) and 25 units of wild type T7 RNA polymerase (BRL, Gibco or Nippon Gene) or the mutant T7 RNA polymerase F644Y or L665P/F667Y at 37° C. for 1 hour. Then, to remove the unreacted dye terminator remained in the reaction product, the transcription product was purified by gel filtration using Sephadex G-50 column (Pharmacia Biotec), and the purification product was evaporated to dryness using a centrifugal evaporator.
# (§1) The dried reaction product was dissolved in 6 μl of formamide/EDTA/Blue dextran loading buffer according to the instruction manual Ver. 1.0 of ABI PRISM 377 DNA Sequencing System available from Perkin-Elmer Japan, and 2 μl of the solution was analyzed by ABI 377 DNA Sequencer and an analysis program using denatured gel for sequencing analysis which contained 6M urea/4% Long Ranger™ acrylamide solution (FMC).
# The peak intensities of the sequence ladders obtained by using F644Y and L665P/F667Y are shown in FIG. 14 and FIG. 15 with the peak intensity obtained by using wild type T7 RNA polymerase.
# [3] = test system: plasmid vector pBluescriptKS(+) having T7 promoter; test: Sequencing reaction by the dye terminator method, linearized pBluescriptKS(+) template (Example 5); conditions: four dye terminators; for sequence reading: 37° C., 1 hour, ABI 377; for peak intensity in sequencing reaction: in comparison with wild type T7 RNA polymerase
# Protocol: Sequencing reaction by the dye terminator method was performed utilizing the purified mutant T7 RNA polymerases F644Y and L665P/F667Y, and the wild type T7 RNA polymerase as follows for comparison.
# For the in vitro transcription reaction, the method of Melton, D. A. (1984, Nucleic Acids Res., 12:7035-7056) exemplified in Example 4 was used. More specifically, the reaction was performed in a total reaction volume of 10 μl containing a plasmid vector pBluescriptKS (+) having T7 promoter linearized by the reaction with a restriction endonuclease PvuII or ScaI as a template, 5-carboxyrhodamine 6G-labeled 3′-deoxyadenosine-5′-triphosphate, 5-carboxyrhodamine 110-labeled 3′-deoxyguanosine-5′-triphosphate, 5-carboxy-X-rhodamine-labeled 3′-deoxycytidine-5′-triphosphate, and 5-carboxytetramethylrhodamine-labeled 3′-deoxyuridine-5′triphosphate, which were dye terminators prepared according to the method described in W096/14434 as derivatives of 3′-DNTP, 500 μM of GTP and UTP, 250 μM of ATP and CTP, 8 mM of MgCl2, 2 mM of spermidine-(HCl)3, 5 mM of DTT, 40 mM of Tris/HCl pH 8.0 (BRL, Gibco) and 25 units of wild type T7 RNA polymerase (BRL, Gibco or Nippon Gene) or the mutant T7 RNA polymerase F644Y at 37° C. for 1 hour. Then, to remove the unreacted dye terminators remained in the reaction product, the transcription product was purified by gel filtration using Sephadex G-50 column (Pharmacia Biotec), and the purification product was evaporated to dryness using a centrifugal evaporator.
# as §1
# [4] = test system: DNA containing T7 promoter; test: In vitro RNA synthesis activity (enzyme dilution method, plasmid containing T7 promoter as template); conditions: compared with wild type T7 RNA polymerase
# Source text: The T7 RNA polymerases introduced with mutations were purified, and their abilities of promoter sequence specific RNA synthesis and incorporation of ribonucleoside 5′-triphosphates including ATP, GTP, CTP, UTP and derivatives thereof, as well as 3′-dATP, 3′-dGTP, 3′-dCTP, 3′-dUTP and derivatives thereof were compared with those of wild type T7 RNA polymerase.
# All of the mutant T7 RNA polymerases can be purified by principally the same method. The difference of mutation site may cause some difference in the expression level, and behavior in column chromatography. The purification method of mutant T7 RNA polymerase F644Y is exemplified hereinafter. The expression vector pT7RF644Y for F644Y was introduced into E. coli DH5∝, and the cells were cultured in a test tube containing LB culture medium containing antibiotic ampicillin. When the OD (600 nm) of the medium reached 0.4-0.6, isopropyl-β-thiogalactopyranoside (IPTG) was added to the culture to a final concentration of 0.4 mM, and the cultivation was further continued for additional 8 hours. Then, the E. coli cells were collected by centrifugation. Typically, 2 liters of culture medium affords 10 g of E. coli cells in wet weight. If the E. coli cells are not used immediately, they can be stored in a refrigerator at −20° C. Subsequent steps for purification of enzyme should be performed at a temperature lower than room temperature, preferably 0-5° C. unless otherwise indicated. The E. coli cells were washed with 10 times relative to the cell weight of a washing buffer (20 mM Tris-HCl, pH 8.1, 130 mM NaCl, 2 mM EDTANa2 at 25° C.), centrifuged again [5,000×g, 4° C., 10 minutes), suspended in 10 times in volume of a sonication buffer (50 mM Tris-HCl, pH 8.1, 100 mM NaCl, 0.1 mM EDTANa2, 5 mM dithiothreitol (DTT), 0.1 mM benzamidine, 30 μg/ml phenylmethylsulfonyl fluoride (PMSF), 10 μg/ml bacitracin], and sonicated by using Sonifier 450 (Branson) at 80W for more than 15 minutes to destroy the cells and reduce the viscosity of the cells. […]
substance,measurement,setting,value
F644Y/F667Y: mutant T7 RNA polymerase with F644Y and F667Y mutations,"ability for incorporating 3′-dATP, 3′-dGTP, 3′-dCTP, 3′-dUTP and derivatives thereof",[1],almost equal to that of the F644Y/L665P/F667Y mutant
F644Y: T7 RNA polymerase in which F (phenylalanine) 644 was replaced with Y (tyrosine),"ability for incorporating 3′-dATP, 3′-dGTP, 3′-dCTP, 3′-dUTP and derivatives thereof",[1],markedly improved
same,length of transcription product confirmed,"[2]; 150 μM dye terminator, 37° C., 1 hour",about 700 bases
same,length of sequence ladder relative to that afforded by the wild type T7 RNA polymerase,"[2]; 150 μM dye terminator, 37° C., 1 hour, gel image FIG. 13",3 times
same,incorporation efficiency for 3′-dCTP derivatives,[2],improved
same,peak intensities of the sequence ladders,[2],"less fluctuation in comparison with the wild type, and the peak showed stronger signals"
same,sequence reading,[3],possible
same,peak intensity in sequencing reaction,[3],higher peak intensity with less fluctuation
F667Y: T7 RNA polymerase in which F667 was replaced with Y,"ability for incorporating 3′-dATP, 3′-dGTP, 3′-dCTP, 3′-dUTP and derivatives thereof",[1],comparable to that of the L665P/F667Y mutant
F733Y: T7 RNA polymerase in which F733 was replaced with Y,"ability for incorporating 3′-dATP, 3′-dGTP, 3′-dCTP, 3′-dUTP and derivatives thereof",[1],slightly improved
same,RNA synthesis activity,[4],slightly decreased
F782Y: T7 RNA polymerase in which F782 was replaced with Y,"ability for incorporating 3′-dATP, 3′-dGTP, 3′-dCTP, 3′-dUTP and derivatives thereof",[1],slightly improved
F882Y: T7 RNA polymerase in which F882 was replaced with Y,RNA synthesis activity,[4],markedly decreased
L665P/F667Y: mutant T7 RNA polymerase with L665P and F667Y mutations,"ability for incorporating 3′-dATP, 3′-dGTP, 3′-dCTP, 3′-dUTP and derivatives thereof",[1],markedly improved
same,incorporation efficiency for 3′-dCTP derivatives,[2],improved
same,peak intensities of the sequence ladders,[2],"less fluctuation in comparison with the wild type, and the peak showed stronger signals"
same,sequence reading,[3],possible
same,peak intensity in sequencing reaction,[3],higher peak intensity with less fluctuation
"Wild type: wild type T7 RNA polymerase, 883 amino acid residues, purified from E. coli harboring pT7R or commercially available [reference compound]",RNA synthesis activity,[4],exhibited sufficient RNA synthesis activity
same,sequence reading,[3]; listed as wild type T7RNA polymerase (WT),could not be correctly performed
